# Reference: patent US20240360148A1 (SUVALENT THERAPEUTICS, INC., priority 2021, published 2024)
# Molecular target: SAE1 (Homo sapiens (Human), UniProt Q9UBE0+Q9UBT2)
# Experiment: SAE High Throughput Biochemical Assay (HTRF), 15 min preincubation
# Conditions: read-out: 15 min preincubation HTRF IC50 (μM) Ave, SAE1 12.5 nM, ATP 100 μM
# Method: Assay buffer was prepared [50 mM HEPES, pH 7.5, 0.1% BSA and 10 mM MgCl2] as was the Stop Buffer [100 mM HEPES, pH 7.5, 0.05% Tween20, and 410 mM KF]. The 2×Reaction Buffer [80 nM SUMO-GST, 80 nM UBC9-His, 200 μM ATP and diluted in Assay Buffer] and Antibody Reaction Mix [13.34 nM anti-GSTXL665, 1.66 nM anti-His EuK and Diluted in Stop Buffer] were also prepared. Compounds were dissolved at 200×in DMSO in a 384-well plate. Serial dilutions were performed in DMSO for each compound, and then each concentration was diluted another 50-fold in Assay Buffer, to 4× the final concentration. 2.5 μL of each concentration was transferred into its own well in a 384-well plate. SAE1 was then diluted to 4× in Assay Buffer, and 2.5 μL of 4×SAE1 was mixed into each compound-containing well. After incubating for 15 minutes at RT, 5 μL of 2×Reaction Buffer was mixed into every well. Then after another 45 minutes at RT, 10 μL of Antibody Reaction Mix was added and mixed into every well. This plate was then read on an HTRF-compatible plate reader after 2 hours at RT, and again after sitting at RT overnight. [Final Component Concentrations: SAE1: 12.5 nM; SUMO-GST: 40 nM; UBC9-His: 40 nM; Anti-GST-XL665: 6.67 nM; Anti-His-EuK: 0.83 nM; and ATP: 100 μM] Alternatively, the compounds are tested at a single concentration of 25 micromolar and the percent of control is measured.
# Sequence of SAE1 (Q9UBE0 whole entry): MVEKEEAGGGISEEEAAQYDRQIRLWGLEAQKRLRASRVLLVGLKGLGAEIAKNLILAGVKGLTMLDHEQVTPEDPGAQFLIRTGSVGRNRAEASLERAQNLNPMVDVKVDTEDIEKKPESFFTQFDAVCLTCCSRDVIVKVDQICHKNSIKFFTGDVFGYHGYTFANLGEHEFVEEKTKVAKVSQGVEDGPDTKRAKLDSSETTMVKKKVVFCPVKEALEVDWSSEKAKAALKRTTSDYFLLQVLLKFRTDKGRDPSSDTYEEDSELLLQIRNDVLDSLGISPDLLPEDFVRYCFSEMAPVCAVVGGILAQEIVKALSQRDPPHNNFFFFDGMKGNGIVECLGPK
# Sequence of SAE1 (Q9UBT2 whole entry): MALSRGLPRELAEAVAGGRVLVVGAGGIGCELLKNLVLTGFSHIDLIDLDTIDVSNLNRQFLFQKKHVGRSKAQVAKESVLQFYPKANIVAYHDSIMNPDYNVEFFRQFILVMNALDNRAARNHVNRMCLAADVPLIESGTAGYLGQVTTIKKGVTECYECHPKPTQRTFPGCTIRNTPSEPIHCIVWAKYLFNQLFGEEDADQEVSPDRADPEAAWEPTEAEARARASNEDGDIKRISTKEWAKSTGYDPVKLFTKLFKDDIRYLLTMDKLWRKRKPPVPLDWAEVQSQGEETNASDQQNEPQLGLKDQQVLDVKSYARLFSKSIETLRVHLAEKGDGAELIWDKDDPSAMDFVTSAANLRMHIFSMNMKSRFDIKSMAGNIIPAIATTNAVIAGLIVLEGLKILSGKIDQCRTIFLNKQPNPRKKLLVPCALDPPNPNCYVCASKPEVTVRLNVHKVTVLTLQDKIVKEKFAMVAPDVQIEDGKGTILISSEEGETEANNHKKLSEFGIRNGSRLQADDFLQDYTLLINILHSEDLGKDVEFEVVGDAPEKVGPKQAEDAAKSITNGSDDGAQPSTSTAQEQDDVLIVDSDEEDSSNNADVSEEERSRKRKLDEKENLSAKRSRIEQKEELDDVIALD
row,SMILES,IC50 [µM]
1,C=CC(=O)N1Cc2sc(C#N)cc2C(c2ccc(N)cc2-c2cn(CC)nc2C(F)(F)F)C1 (stereo not shown) [Compound 228],2.07
2,"CN(C)C/C=C/C(=O)N1Cc2sc(C#N)cc2[C@H](c2ccccc2C#N)C1 [Example 4, (S, E)-4-(2-Cyanophenyl)-6-(4-(dimethylamino)but-2-enoyl)-4,5,6,7-tetrahydrothieno[2,3-c]pyridine-2-carbonitrile]",> 25
3,"CCn1cc(-c2ccccc2[C@@H]2CN(C(=O)/C=C/CN3CCC[C@H]3C(=O)O)Cc3sc(C#N)cc32)c(C(F)(F)F)n1 [Example 6, ((E)-4-((S)-2-cyano-4-(2-(1-ethyl-3-(trifluoromethyl)-1 H-pyrazol-4-yl)phenyl)-4,7-dihydrothieno[2,3-c]pyridin-6(5H)-yl)-4-oxobut-2-en-1-yl)proline]",7.43
4,"CCn1cc(-c2ccccc2[C@@H]2CN(C(=O)/C=C/CN(C)C)Cc3sc(C#N)cc32)c(C(C)(F)F)n1 [Example 10, (S, E)-4-(2-(3-(1,1-difluoroethyl)-1-ethyl-1H-pyrazol-4-yl)phenyl)-6-(4-(dimethylamino)but-2-enoyl)-4,5,6,7-tetrahydrothieno[2,3-c]pyridine-2-carbonitrile]",13.4
5,CCn1cc(-c2ccccc2[C@@H]2CN(C(=O)/C=C/CCN(C)C)Cc3sc(C#N)cc32)c(C(F)(F)F)n1 [Example 16],18.1
6,"CN(C)C/C=C/C(=O)N1Cc2sc(C#N)cc2[C@H](c2ccccc2-c2cn(CC(F)F)nc2C(F)(F)F)C1 [Example 18, (S,E)-4-(2-(1-(2,2-difluoroethyl)-3-(trifluoromethyl)-1 H-pyrazol-4-yl)phenyl)-6-(4-(dimethylamino)but-2-enoyl)-4,5,6,7-tetrahydrothieno[2,3-c]pyridine-2-carbonitrile]",8.99
7,"CN(C)C/C=C/C(=O)N1Cc2sc(C#N)cc2[C@H](c2ccccc2-c2cn(CC(F)(F)F)nc2C(F)(F)F)C1 [Example 19, (S, E)-6-(4-(Dimethylamino)but-2-enoyl)-4-(2-(1-(2,2,2-trifluoroethyl)-3-(trifluoromethyl)-1 H-pyrazol-4-yl)phenyl)-4,5,6,7-tetrahydrothieno[2,3-c]pyridine-2-carbonitrile]",6.12
8,"CCn1cc(-c2ccccc2[C@@H]2CN(C(=O)/C=C/C(c3ccccc3)N(C)C)Cc3sc(C#N)cc32)c(C(F)(F)F)n1 (stereo partly drawn) [Example 26, (4S)-6-((E)-4-(Dimethylamino)-4-phenylbut-2-enoyl)-4-(2-(1-ethyl-3-(trifluoromethyl)-1 H-pyrazol-4-yl)phenyl)-4,5,6,7-tetrahydrothieno[2,3-c]pyridine-2-carbonitrile]",7.92
9,"CCn1cc(-c2ccccc2[C@@H]2CN(C(=O)/C=C/CN(C)Cc3ccccc3)Cc3sc(C#N)cc32)c(C(F)(F)F)n1 [Example 33, (S, E)-6-(4-(benzyl(methyl)amino)but-2-enoyl)-4-(2-(1-ethyl-3-(trifluoromethyl)-1 H-pyrazol-4-yl)phenyl)-4,5,6,7-tetrahydrothieno[2,3-c]pyridine-2-carbonitrile]",8.44
10,"CCn1cc(-c2ccccc2[C@@H]2CN(C(=O)/C=C/CN3CCC(c4ccccc4)C3)Cc3sc(C#N)cc32)c(C(F)(F)F)n1 (stereo partly drawn) [Example 35, (4S)-4-(2-(1-ethyl-3-(trifluoromethyl)-1 H-pyrazol-4-yl)phenyl)-6-((E)-4-(3-phenylpyrrolidin-1-yl)but-2-enoyl)-4,5,6,7-tetrahydrothieno[2,3-c]pyridine-2-carbonitrile]",> 25
11,"CCn1cc(-c2ccccc2[C@@H]2CN(C(=O)/C=C/C(C)(C)N)Cc3sc(C#N)cc32)c(C(F)(F)F)n1 [Example 37, (S, E)-6-(4-amino-4-methylpent-2-enoyl)-4-(2-(1-ethyl-3-(trifluoromethyl)-1 H-pyrazol-4-yl)phenyl)-4,5,6,7-tetrahydrothieno[2,3-c]pyridine-2-carbonitrile]",> 25
12,"CCn1cc(-c2ccccc2[C@@H]2CN(C(=O)/C=C/C(C)(C)NC)Cc3sc(C#N)cc32)c(C(F)(F)F)n1 [Example 38, (S, E)-4-(2-(1-ethyl-3-(trifluoromethyl)-1 H-pyrazol-4-yl)phenyl)-6-(4-methyl-4-(methylamino)pent-2-enoyl)-4,5,6,7-tetrahydrothieno[2,3-c]pyridine-2-carbonitrile]",> 25
13,"CCn1cc(-c2ccccc2[C@@H]2CN(C(=O)/C=C/[C@H](C)N)Cc3sc(C#N)cc32)c(C(F)(F)F)n1 [Example 49, (S)-6-((S,E)-4-aminopent-2-enoyl)-4-(2-(1-ethyl-3-(trifluoromethyl)11 H-pyrazol-4-yl)phenyl)-4,5,6,7-tetrahydrothieno[2,3-c]pyridine-2-carbonitrile]",10.1
14,"CCn1cc(-c2c(F)cccc2[C@@H]2CN(C(=O)/C=C/CN[C@@H]3CCOC3)Cc3sc(C#N)cc32)c(C(F)(F)F)n1 [Example 55, (S)-4-(2-(1-ethyl-3-(trifluoromethyl)-1 H-pyrazol-4-yl)-3-fluorophenyl)-6-((E)-4-(((R)-tetrahydrofuran-3-yl)amino)but-2-enoyl)-4,5,6,7-tetrahydrothieno[2,3-c]pyridine-2-carbonitrile]",1.66
15,"CCn1cc(-c2c(F)cccc2[C@@H]2CN(C(=O)/C=C/CN[C@H]3CCOC3)Cc3sc(C#N)cc32)c(C(F)(F)F)n1 [Example 56, (S)-4-(2-(1-ethyl-3-(trifluoromethyl)-1 H-pyrazol-4-yl)-3-fluorophenyl)-6-((E)-4-(((S)-tetrahydrofuran-3-yl)amino)but-2-enoyl)-4,5,6,7-tetrahydrothieno[2,3-c]pyridine-2-carbonitrile]",1.09
16,"CCn1cc(-c2c(F)cccc2[C@@H]2CN(C(=O)/C=C/CNC3CCN(C(C)=O)CC3)Cc3sc(C#N)cc32)c(C(F)(F)F)n1 [Example 57, (S, E)-6-(4-((1-acetylpiperidin-4-yl)amino)but-2-enoyl)-4-(2-(1-ethyl-3-(trifluoromethyl)-1 H-pyrazol-4-yl)-3-fluorophenyl)-4,5,6,7-tetrahydrothieno[2,3-c]pyridine-2-carbonitrile]",> 25
17,"CCn1cc(-c2c(F)cccc2[C@@H]2CN(C(=O)/C=C/CNC3CCN(C(C)=O)C3)Cc3sc(C#N)cc32)c(C(F)(F)F)n1 (stereo partly drawn) [Example 58, (4S)-6-((E)-4-((1-acetylpyrrolidin-3-yl)amino)but-2-enoyl)-4-(2-(1-ethyl-3-(trifluoromethyl)-1 H-pyrazol-4-yl)-3-fluorophenyl)-4,5,6,7-tetrahydrothieno[2,3-c]pyridine-2-carbonitrile]",6.06
18,"C=C(CO)C(=O)N1Cc2sc(C#N)cc2[C@H](c2ccccc2-c2cn(CC)nc2C(F)(F)F)C1 [Example 62, (S)-4-(2-(1-Ethyl-3-(trifluoromethyl)-1 H pyrazol-4-yl)phenyl)-6-(2-(hydroxymethyl)acryloyl)-4,5,6,7-tetrahydrothieno[2,3-c]pyridine-2-carbonitrile]",> 25
19,"C=C(C(=O)N1Cc2sc(C#N)cc2[C@H](c2ccccc2-c2cn(CC)nc2C(F)(F)F)C1)c1ccccc1 [Example 63, (S)-4-(2-(1-Ethyl-3-(trifluoromethyl)-1H pyrazol-4-yl)phenyl)-6-(2-phenylacryloyl)-4,5,6,7-tetrahydrothieno[2,3-c]pyridine-2-carbonitrile]",> 25
